Here are results for 2 compounds from PMC11167047 (Cell Death Discovery, 2024).

Each structure is given as a SMILES string.

Test in all cases: kinome screen (33PanQinase)
What all share (format): biochemical

The target in one experiment is T1, CDK4/CycD2 (Homo sapiens, UniProt P11802).
T1 construct: purchased Reaction Biology Europe GmbH (formerly ProQinase)
On the procedure:
(§1) The Kinome Screening was performed by Reaction Biology Europe GmbH (http://reactionbiology.com; Freiburg i. Br., Germany).

The target in another experiment is T2, EEF2K (Homo sapiens, UniProt O00418).
T2 construct: purchased Reaction Biology Europe GmbH (formerly ProQinase)
T2 sequence (O00418 1-725): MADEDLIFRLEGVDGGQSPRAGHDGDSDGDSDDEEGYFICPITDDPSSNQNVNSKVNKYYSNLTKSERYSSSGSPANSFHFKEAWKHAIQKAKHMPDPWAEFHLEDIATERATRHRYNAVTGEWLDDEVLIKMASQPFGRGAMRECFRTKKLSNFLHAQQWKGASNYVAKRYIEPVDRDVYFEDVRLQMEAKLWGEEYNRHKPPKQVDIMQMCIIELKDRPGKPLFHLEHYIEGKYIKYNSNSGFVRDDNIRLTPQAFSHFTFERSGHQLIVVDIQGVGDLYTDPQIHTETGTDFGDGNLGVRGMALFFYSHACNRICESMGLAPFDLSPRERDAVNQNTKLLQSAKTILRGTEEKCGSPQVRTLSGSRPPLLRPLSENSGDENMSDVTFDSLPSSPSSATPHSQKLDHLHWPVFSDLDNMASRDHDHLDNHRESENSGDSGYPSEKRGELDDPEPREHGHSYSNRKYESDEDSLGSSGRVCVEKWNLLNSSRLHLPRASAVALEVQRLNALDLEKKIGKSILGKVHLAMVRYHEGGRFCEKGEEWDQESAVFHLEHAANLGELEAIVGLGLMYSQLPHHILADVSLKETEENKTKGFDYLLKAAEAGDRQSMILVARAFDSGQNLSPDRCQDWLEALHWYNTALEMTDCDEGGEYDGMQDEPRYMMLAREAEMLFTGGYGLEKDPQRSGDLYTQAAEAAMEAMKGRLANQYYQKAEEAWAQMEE
On the procedure: as §1

The target in a further experiment is T3, FES (Homo sapiens, UniProt P07332).
T3 construct: purchased Reaction Biology Europe GmbH (formerly ProQinase)
Here is the method:
as §1

The next experiment has as its target T4, FGFR3 (Homo sapiens, UniProt P22607).
T4 construct: purchased Reaction Biology Europe GmbH (formerly ProQinase)
Here is the method: as §1

The next experiment addresses T5, GSG2 (Homo sapiens, UniProt Q8TF76).
T5 construct: purchased Reaction Biology Europe GmbH (formerly ProQinase)
T5 sequence (Q8TF76 1-798): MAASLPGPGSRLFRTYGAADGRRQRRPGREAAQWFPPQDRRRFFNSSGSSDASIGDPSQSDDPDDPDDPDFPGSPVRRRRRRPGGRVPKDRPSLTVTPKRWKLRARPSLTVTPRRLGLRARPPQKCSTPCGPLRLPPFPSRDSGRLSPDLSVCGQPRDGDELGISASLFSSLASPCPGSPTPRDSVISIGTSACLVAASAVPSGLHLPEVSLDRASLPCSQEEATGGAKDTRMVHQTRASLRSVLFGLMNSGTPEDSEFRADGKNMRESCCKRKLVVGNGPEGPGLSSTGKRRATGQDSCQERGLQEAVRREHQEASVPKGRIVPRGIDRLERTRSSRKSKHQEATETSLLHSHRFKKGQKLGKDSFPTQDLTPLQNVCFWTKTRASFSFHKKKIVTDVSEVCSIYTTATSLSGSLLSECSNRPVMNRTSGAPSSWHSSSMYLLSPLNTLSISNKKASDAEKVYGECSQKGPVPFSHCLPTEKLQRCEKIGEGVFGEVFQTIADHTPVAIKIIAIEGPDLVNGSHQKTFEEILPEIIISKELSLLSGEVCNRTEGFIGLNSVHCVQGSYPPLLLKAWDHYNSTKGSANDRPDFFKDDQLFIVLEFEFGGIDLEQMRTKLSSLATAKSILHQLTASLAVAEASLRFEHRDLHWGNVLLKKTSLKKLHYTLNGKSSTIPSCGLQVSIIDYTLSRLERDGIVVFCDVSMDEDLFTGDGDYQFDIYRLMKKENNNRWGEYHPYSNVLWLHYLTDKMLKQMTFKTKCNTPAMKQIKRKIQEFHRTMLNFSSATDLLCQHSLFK
Here is the method:
as §1

The next experiment has as its target T6, MAP3K1 (Homo sapiens, UniProt Q13233).
T6 construct: purchased Reaction Biology Europe GmbH (formerly ProQinase)
Here is the method:
as §1

A further experiment has as its target T7, MAPKAPK5 (Homo sapiens, UniProt Q8IW41).
T7 construct: purchased Reaction Biology Europe GmbH (formerly ProQinase)
On the procedure:
as §1

In another experiment the target is T8, MARK3 (Homo sapiens, UniProt P27448).
T8 construct: purchased Reaction Biology Europe GmbH (formerly ProQinase)
On the procedure: as §1

The next experiment concerns the target T9, PKCβ1 (Homo sapiens, UniProt P05771).
T9 construct: purchased Reaction Biology Europe GmbH (formerly ProQinase)
On the procedure: as §1

The next experiment has as its target T10, TRKA (Homo sapiens, UniProt P04629).
T10 construct: purchased Reaction Biology Europe GmbH (formerly ProQinase)
On the procedure:
as §1

The target of another experiment is T11, VEGFR3 (Homo sapiens, UniProt P35916).
T11 construct: purchased Reaction Biology Europe GmbH (formerly ProQinase)
On the procedure: as §1

T11 sequence (P35916 25-1363): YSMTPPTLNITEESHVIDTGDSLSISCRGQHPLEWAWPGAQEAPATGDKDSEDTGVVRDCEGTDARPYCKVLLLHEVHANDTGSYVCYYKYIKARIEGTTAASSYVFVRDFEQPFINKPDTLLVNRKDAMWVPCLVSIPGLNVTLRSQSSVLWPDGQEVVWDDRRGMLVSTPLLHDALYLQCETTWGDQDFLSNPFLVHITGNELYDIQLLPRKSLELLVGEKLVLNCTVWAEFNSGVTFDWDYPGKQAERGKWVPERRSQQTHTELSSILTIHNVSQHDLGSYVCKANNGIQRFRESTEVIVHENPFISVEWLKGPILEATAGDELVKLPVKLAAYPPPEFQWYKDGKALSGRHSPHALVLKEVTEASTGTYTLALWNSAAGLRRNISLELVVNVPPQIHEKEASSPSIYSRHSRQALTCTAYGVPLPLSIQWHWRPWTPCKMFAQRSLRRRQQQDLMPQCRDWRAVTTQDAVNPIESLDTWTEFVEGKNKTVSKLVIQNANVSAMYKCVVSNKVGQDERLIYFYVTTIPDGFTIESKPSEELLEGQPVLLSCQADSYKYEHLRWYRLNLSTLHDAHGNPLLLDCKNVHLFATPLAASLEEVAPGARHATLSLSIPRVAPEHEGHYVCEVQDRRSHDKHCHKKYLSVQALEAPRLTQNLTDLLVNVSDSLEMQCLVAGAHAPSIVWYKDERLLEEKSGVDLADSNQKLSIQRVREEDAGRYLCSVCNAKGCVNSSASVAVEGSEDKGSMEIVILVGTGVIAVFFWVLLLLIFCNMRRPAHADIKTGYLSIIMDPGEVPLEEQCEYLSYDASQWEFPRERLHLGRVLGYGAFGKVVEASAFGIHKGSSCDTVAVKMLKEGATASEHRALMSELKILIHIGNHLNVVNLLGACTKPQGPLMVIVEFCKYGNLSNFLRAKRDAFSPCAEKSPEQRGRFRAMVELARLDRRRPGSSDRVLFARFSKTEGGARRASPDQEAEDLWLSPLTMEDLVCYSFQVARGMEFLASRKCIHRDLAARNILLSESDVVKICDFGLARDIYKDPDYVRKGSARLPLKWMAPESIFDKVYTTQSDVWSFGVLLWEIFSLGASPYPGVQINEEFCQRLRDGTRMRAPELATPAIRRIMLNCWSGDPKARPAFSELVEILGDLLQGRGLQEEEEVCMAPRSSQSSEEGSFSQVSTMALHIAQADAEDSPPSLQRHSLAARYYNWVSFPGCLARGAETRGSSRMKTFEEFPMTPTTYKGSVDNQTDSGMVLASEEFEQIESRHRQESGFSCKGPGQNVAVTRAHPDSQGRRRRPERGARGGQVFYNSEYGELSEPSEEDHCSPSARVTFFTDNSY
T4 sequence (P22607 23-806): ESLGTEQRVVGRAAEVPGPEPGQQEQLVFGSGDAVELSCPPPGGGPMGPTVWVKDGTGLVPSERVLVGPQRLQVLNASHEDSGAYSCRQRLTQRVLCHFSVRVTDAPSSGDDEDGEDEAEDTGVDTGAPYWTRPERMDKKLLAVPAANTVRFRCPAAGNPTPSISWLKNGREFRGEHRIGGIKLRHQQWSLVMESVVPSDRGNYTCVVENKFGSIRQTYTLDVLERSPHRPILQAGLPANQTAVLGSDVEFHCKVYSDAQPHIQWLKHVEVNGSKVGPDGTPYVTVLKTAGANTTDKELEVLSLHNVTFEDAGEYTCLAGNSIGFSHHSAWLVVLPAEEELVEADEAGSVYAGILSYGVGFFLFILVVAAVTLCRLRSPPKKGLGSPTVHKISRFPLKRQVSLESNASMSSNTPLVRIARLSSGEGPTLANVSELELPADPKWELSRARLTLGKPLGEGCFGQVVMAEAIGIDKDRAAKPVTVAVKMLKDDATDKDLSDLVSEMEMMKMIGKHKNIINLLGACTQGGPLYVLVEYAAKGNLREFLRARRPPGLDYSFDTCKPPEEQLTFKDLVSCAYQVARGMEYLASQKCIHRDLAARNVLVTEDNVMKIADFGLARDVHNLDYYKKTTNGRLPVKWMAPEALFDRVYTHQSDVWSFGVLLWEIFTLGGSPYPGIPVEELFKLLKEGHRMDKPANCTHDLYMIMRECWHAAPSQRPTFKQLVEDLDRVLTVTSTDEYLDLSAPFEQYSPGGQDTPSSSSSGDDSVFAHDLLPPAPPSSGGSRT
T10 sequence (P04629 33-796): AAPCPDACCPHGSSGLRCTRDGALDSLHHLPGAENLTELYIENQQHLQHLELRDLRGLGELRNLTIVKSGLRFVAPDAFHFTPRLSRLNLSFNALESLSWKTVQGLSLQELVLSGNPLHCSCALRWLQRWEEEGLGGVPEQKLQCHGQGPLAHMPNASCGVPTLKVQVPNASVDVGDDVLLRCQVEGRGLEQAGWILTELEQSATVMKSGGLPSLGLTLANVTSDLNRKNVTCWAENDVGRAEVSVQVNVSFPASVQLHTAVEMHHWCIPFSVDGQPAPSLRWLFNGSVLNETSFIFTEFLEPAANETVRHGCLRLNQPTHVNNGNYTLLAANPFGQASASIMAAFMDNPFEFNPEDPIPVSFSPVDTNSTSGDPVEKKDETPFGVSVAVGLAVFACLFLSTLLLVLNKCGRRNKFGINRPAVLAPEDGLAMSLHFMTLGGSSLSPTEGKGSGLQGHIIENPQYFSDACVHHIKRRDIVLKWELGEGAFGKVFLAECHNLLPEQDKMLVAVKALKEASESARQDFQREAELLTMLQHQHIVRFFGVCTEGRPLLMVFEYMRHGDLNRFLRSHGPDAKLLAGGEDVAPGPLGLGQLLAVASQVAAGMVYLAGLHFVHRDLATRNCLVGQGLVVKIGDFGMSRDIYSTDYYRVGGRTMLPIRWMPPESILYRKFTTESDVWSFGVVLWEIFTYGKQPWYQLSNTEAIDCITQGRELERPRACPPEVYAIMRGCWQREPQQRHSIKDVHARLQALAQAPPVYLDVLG
T6 sequence (Q13233 whole entry): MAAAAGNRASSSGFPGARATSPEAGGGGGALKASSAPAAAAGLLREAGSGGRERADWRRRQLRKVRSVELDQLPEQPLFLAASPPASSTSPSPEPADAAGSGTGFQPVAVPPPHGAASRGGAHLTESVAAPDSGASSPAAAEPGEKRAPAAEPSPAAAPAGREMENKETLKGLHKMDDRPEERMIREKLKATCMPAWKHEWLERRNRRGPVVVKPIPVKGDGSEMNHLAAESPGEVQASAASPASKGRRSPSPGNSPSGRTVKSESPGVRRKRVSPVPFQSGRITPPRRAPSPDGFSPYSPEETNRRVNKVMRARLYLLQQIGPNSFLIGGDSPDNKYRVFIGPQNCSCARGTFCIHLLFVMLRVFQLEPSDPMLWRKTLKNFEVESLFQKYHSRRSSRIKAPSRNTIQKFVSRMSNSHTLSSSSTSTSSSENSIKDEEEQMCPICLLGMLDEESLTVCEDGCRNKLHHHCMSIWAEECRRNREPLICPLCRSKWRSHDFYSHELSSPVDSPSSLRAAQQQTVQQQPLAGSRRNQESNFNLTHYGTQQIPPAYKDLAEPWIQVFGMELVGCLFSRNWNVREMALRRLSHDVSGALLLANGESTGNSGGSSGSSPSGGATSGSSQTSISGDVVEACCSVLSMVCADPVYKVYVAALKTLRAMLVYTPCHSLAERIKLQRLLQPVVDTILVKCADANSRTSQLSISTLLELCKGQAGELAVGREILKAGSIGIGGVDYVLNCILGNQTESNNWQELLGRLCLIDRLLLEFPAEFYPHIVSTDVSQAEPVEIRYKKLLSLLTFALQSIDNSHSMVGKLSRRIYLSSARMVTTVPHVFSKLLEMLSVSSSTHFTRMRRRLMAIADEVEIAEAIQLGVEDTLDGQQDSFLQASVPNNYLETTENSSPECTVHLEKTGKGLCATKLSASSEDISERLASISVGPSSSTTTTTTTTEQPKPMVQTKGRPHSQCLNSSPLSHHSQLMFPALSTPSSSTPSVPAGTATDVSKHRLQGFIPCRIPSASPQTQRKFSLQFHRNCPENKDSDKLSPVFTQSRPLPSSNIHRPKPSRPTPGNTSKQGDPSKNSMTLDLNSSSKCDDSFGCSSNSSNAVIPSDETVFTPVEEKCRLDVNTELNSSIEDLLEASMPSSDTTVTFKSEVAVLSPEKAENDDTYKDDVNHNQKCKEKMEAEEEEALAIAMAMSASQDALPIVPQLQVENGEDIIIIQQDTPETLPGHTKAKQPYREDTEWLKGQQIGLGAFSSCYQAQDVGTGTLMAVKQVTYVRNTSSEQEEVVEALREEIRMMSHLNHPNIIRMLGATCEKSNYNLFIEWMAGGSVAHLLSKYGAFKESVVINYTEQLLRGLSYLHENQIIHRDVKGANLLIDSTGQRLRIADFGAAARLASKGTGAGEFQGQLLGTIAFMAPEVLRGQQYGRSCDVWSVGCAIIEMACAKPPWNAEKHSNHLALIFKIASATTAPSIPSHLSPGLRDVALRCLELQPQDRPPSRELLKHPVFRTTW
T1 sequence (P11802 whole entry): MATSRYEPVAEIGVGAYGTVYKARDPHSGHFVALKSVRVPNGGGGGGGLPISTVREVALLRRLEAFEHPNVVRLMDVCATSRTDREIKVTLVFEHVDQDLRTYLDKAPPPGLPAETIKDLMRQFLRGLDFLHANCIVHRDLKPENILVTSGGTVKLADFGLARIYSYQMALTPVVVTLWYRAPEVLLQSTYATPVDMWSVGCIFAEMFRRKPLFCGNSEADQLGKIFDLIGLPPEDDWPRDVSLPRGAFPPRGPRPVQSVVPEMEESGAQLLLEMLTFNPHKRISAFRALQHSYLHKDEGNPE
T1 sequence (P30279 whole entry partner): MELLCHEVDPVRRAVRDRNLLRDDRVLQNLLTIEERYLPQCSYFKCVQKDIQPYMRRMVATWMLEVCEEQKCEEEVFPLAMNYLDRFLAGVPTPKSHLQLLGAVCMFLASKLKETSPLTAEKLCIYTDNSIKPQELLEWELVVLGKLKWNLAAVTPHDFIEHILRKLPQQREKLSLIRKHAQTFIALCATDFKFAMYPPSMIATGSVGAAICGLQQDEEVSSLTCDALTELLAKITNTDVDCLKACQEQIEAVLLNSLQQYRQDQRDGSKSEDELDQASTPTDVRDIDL

On to `c1ccc(CNc2cc(-c3c[nH]c4ncccc34)ccn2)cc1` [meriolin 36], for which the residual kinase activity is given as 21 % of control on CDK4/CycD2 (0.3 µM); 3 % of control on CDK4/CycD2 (3 µM); 84 % of control on EEF2K (0.3 µM); 97 % of control on EEF2K (3 µM); 83 % of control at FES (0.3 µM); 50 % of control on FES (3 µM). Besides, the residual kinase activity is 64 % of control at FGFR3 (0.3 µM); 20 % of control on FGFR3 (3 µM); 2 % of control at GSG2 (0.3 µM); 0 % of control on GSG2 (3 µM); 94 % of control on MAP3K1 (0.3 µM); 93 % of control at MAP3K1 (3 µM). The residual kinase activity at MAPKAPK5 (3 µM) is recorded as 69 % of control; at MARK3 (0.3 µM), 89 % of control; on MARK3 (3 µM), 48 % of control; on PKCβ1 (0.3 µM) it was 53 % of control; at PKCβ1 (3 µM), 9 % of control; at TRKA (0.3 µM) it was 9 % of control. The residual kinase activity at TRKA (3 µM) is 1 % of control; at VEGFR3 (0.3 µM), 64 % of control; on VEGFR3 (3 µM), 23 % of control.
In the case of `COc1ccnc2[nH]cc(-c3cc(N)nc(N)c3)c12` [meriolin 16], the residual kinase activity on CDK4/CycD2 (0.03 µM) is listed as 81 % of control; on CDK4/CycD2 (0.3 µM), 34 % of control; at EEF2K (0.03 µM) it was 96 % of control; at EEF2K (0.3 µM) it was 89 % of control; on FES (0.03 µM) it was 93 % of control; on FES (0.3 µM), 87 % of control. Further, the residual kinase activity on FGFR3 (0.03 µM) is 93 % of control; at FGFR3 (0.3 µM), 84 % of control; on GSG2 (0.03 µM), 2 % of control; at GSG2 (0.3 µM), 0 % of control; at MAP3K1 (0.03 µM) it was 105 % of control; at MAP3K1 (0.3 µM), 106 % of control. Moreover, the residual kinase activity on MAPKAPK5 (0.3 µM) is 85 % of control; on MARK3 (0.03 µM) it was 99 % of control; at MARK3 (0.3 µM), 86 % of control; at PKCβ1 (0.03 µM), 103 % of control; on PKCβ1 (0.3 µM), 50 % of control; on TRKA (0.03 µM) it was 83 % of control. The residual kinase activity was 40 % of control at TRKA (0.3 µM), 90 % of control on VEGFR3 (0.03 µM) and 77 % of control at VEGFR3 (0.3 µM).
